Like-named read-outs stand apart in the source and are kept apart here.
What was measured:
[1] = test system: S6 Ribosomal Protein phosphorylation Ser235/236 in TSC1 null mouse embryo fibroblast (MEF) cells; assay: Reverse protein array, S6 Ribosomal Protein phosphorylation in TSC1 null MEF cells; type: cell-based; conditions: 1 h, TSC1-/- MEFs, 60 minutes
Protocol: TSC1−/− MEFs cells (provided by D. Kwiatkowski), were cultivated in Dulbecco's modified Eagle's medium (DMEM high Glucose, GIBCO, cat. No. 41956-039) supplemented with 10% heat inactivated fetal bovine calf serum (Amimed, cat. No. 2-01F16-I), 1% L-Glutamine (Invitrogen, cat. No. 25030-02), 1% penicillin-streptomycin (GIBCO, cat. No. 15140-114) at 37° C. in a 5% CO2 and 95% relative humidity atmosphere incubator.
The TSC1−/− cells were trypsinized and counted with a CASY TT cell counter (Schärfe System GmbH, Reutlingen Germany). The cells were diluted in fresh DMEM complete medium and 0.75×10^4 cells/150 μl/well seeded in 96-well TPP-tissue culture plates (TPP, cat. No. 92096). The plates were incubated at 37° C. and 5% CO2 under humidified condition for at least 20 h. Working solutions were prepared freshly as serial 8 step dilutions (vol/vol) in DMSO on the day of the experiment. The working solutions were further diluted 1/5000 in cell culture medium to get final compound concentrations of […]. The final DMSO concentration was kept constant at 0.02%. cell culture medium containing 0.02% DMSO was used as vehicle treatment control. Post incubation, the cells were treated with the serial compound dilution. 50 μl of the compound medium mixture was added to the wells containing cells and 150 μl DMEM medium and incubated for 60 minutes (37° C., 5% CO2). After 60 minutes of incubation, the medium mixture was quickly removed by aspiration. For cell lysis, a mixture of 10% CLB1 CeLyA lysis buffer (Zeptosens, cat. No. 9000), 90% CSBL1 CeLyA spotting buffer (Zeptosens, cat. No. 9020) was freshly prepared and supplemented with 1% Octyl β-D-glucopyranoside (SIGMA, cat. No. 08001-5G) and 1 mM Na-Orthovanadate (Sigma, cat No. S-6508). 50 μl of the described lysis buffer mix was added to each well, followed by 10 minutes of incubation on ice. After an additional freeze-thaw cycle, another 50 μl of the lysis buffer mix without Octyl β-D-glucopyranoside was added to the wells, and 90 μl of the cell lysate was transferred to a 96-well V-bottom plate (Fisher Scientific, cat. No. 6067Y), followed by a centrifugation step (5 min, 1500 rpm at 19° C. in an Eppendorf 5810R centrifuge) to remove the unlysed cell debris.
The spotting of the chips follows the previous described method.
The signal detection and the data analysis follows the previous described method using the pS6 ribosomal protein Ser235/236 (CST, cat. No. #2211) as a primary antibody.

[2] = test system: PKB Ser473 phosphorylation in Rat1-myr-HA-p110 delta cells; assay: Reverse protein array, PKB Ser473 phosphorylation in Rat1-myr-HA-p110 delta cells; type: cell-based; conditions: Rattus norvegicus, 0.5 h, 30 minutes compound incubation, read-out: p-PKB/IC50_delta

| SMILES | IC50 ([1]; read-out: p-S6 IC50) [nM] | IC50 [2] [nM] | IC50 ([1]; read-out: p-S6) [nM] |
| --- | --- | --- | --- |
| CNc1cc(-c2ccc3ncc4c(c3c2)n(-c2cccnc2C)c(=O)n4C)cnc1C [Example 2.32, 3-Methyl-8-(6-methyl-5-methylamino-pyridin-3-yl)-1-(2-methyl-pyridin-3-yl)-1,3-dihydro-imidazo[4,5-c]quinolin-2-one] | 2 | 33.7 | – |
| Cc1ncccc1-n1c(=O)n(C)c2cnc3ccc(-c4cncc(N)c4)cc3c21 [Example 2.25, 8-(5-Amino-pyridin-3-yl)-3-methyl-1-(2-methyl-pyridin-3-yl)-1,3-dihydro-imidazo[4,5-c]quinolin-2-one] | – | 110 | – |
| COCc1ncc(-c2ccc3ncc4c(c3c2)n(-c2ccc(N3CCC3)nc2C)c(=O)n4C)cc1OC(C)C [Example 23.2, 1-(6-Azetidin-1-yl-2-methyl-pyridin-3-yl)-8-(5-isopropoxy-6-methoxymethyl-pyridin-3-yl)-3-methyl-1,3-dihydro-imidazo[4,5-c]quinolin-2-one] | – | 123 | – |
| COc1ccc(-c2ccc3ncc4c(c3c2)n(-c2cccnc2C)c(=O)n4C)cc1OC [Example 2.9, 8-(3,4-Dimethoxy-phenyl)-3-methyl-1-(2-methyl-pyridin-3-yl)-1,3-dihydro-imidazo[4,5-c]quinolin-2-one] | – | 34.1 | – |
| CCOc1ccc(-c2ccc3ncc4c(c3c2)n(-c2ccc(F)nc2C)c(=O)n4C)cn1 [Example 7.3, 8-(6-Ethoxy-pyridin-3-yl)-1-(6-fluoro-2-methyl-pyridin-3-yl)-3-methyl-1,3-dihydro-imidazo[4,5-c]quinolin-2-one] | – | 85.8 | 84.3 |
| Cc1ncccc1-n1c(=O)n(C)c2cnc3ccc(-c4ccc(N)nc4)cc3c21 [Example 2.7, 8-(6-Amino-pyridin-3-yl)-3-methyl-1-(2-methyl-pyridin-3-yl)-1,3-dihydro-imidazo[4,5-c]quinolin-2-one] | – | 12.2 | 12.4 |
| Cc1nc(N2CCC2)ccc1-n1c(=O)n(C)c2cnc3ccc(-c4cncc(N5CCC5)c4)cc3c21 [Example 23.1, 1-(6-Azetidin-1-yl-2-methyl-pyridin-3-yl)-8-(5-azetidin-1-yl-pyridin-3-yl)-3-methyl-1,3-dihydro-imidazo[4,5-c]quinolin-2-one] | 2 | 66.9 | – |
| Cc1nc(N(C)CCO)ccc1-n1c(=O)n(C)c2cnc3ccc(-c4cnc(N)c(C(F)(F)F)c4)cc3c21 [Example 26.1, 8-(6-Amino-5-trifluoromethyl-pyridin-3-yl)-1-{6-[(2-hydroxy-ethyl)-methyl-amino]-2-methyl-pyridin-3-yl}-3-methyl-1,3-dihydro-imidazo[4,5-c]quinolin-2-one] | < 0.457 | < 4.57 | – |
| Cc1nc(F)ccc1-n1c(=O)n(C)c2cnc3ccc(-c4cncc(C(C)(C)O)c4)cc3c21 [Example 7.8, 1-(6-Fluoro-2-methyl-pyridin-3-yl)-8-[5-(1-hydroxy-1-methyl-ethyl)-pyridin-3-yl]-3-methyl-1,3-dihydro-imidazo[4,5-c]quinolin-2-one] | 10 | 80.8 | – |
| CNc1ncc(-c2ccc3ncc4c(c3c2)n(-c2ncccc2C)c(=O)n4C)cn1 [Example 3.4, 3-Methyl-8-(2-methylamino-pyrimidin-5-yl)-1-(3-methyl-pyridin-2-yl)-1,3-dihydro-imidazo[4,5-c]quinolin-2-one] | – | 742 | – |
| CNC(=O)c1ccc(-c2ccc3ncc4c(c3c2)n(-c2ncccc2C)c(=O)n4C)cc1 [Example 3.5, N-Methyl-4-[3-methyl-1-(3-methyl-pyridin-2-yl)-2-oxo-2,3-dihydro-1H-imidazo[4,5-c]quinolin-8-yl]-benzamide] | – | 458 | – |
| CCOc1cc(-c2ccc3ncc4c(c3c2)n(-c2ccc(N3CCC3)nc2C)c(=O)n4C)cnc1COC [Example 23.5, 1-(6-Azetidin-1-yl-2-methyl-pyridin-3-yl)-8-(5-ethoxy-6-methoxymethyl-pyridin-3-yl)-3-methyl-1,3-dihydro-imidazo[4,5-c]quinolin-2-one] | – | 155 | – |
| CNc1ncc(-c2ccc3ncc4c(c3c2)n(-c2ccc(N3CC[C@H](O)C3)nc2C)c(=O)n4C)cn1 [Example 32.1, 1-[6-((S)-3-Hydroxy-pyrrolidin-1-yl)-2-methyl-pyridin-3-yl]-3-methyl-8-(2-methylamino-pyrimidin-5-yl)-1,3-dihydro-imidazo[4,5-c]quinolin-2-one] | – | 17.7 | – |
| CCOc1ccc(-c2ccc3ncc4c(c3c2)n(-c2cnccc2C)c(=O)n4C)cn1 [Example 4.2, 8-(6-Ethoxy-pyridin-3-yl)-3-methyl-1-(4-methyl-pyridin-3-yl)-1,3-dihydro-imidazo[4,5-c]quinolin-2-one] | – | – | 460 |
| CCNc1cc(-c2ccc3ncc4c(c3c2)n(-c2ccc(N3CC(O)C3)nc2C)c(=O)n4C)cnc1CO [Example 29.2, 8-(5-Ethylamino-6-hydroxymethyl-pyridin-3-yl)-1-[6-(3-hydroxy-azetidin-1-yl)-2-methyl-pyridin-3-yl]-3-methyl-1,3-dihydro-imidazo[4,5-c]quinolin-2-one] | – | 39.7 | – |
| CNc1ccc(-c2ccc3ncc4c(c3c2)n(-c2ccc(N3CCC3)nc2C)c(=O)n4C)cn1 [Example 23.4, 1-(6-Azetidin-1-yl-2-methyl-pyridin-3-yl)-3-methyl-8-(6-methylamino-pyridin-3-yl)-1,3-dihydro-imidazo[4,5-c]quinolin-2-one] | – | 23.8 | – |
| Cc1nc(N2CCC2)ccc1-n1c(=O)n(C)c2cnc3ccc(-c4cncc(OC(C)C)c4)cc3c21 [Example 23.9, 1-(6-Azetidin-1-yl-2-methyl-pyridin-3-yl)-8-(5-isopropoxy-pyridin-3-yl)-3-methyl-1,3-dihydro-imidazo[4,5-c]quinolin-2-one] | – | 80.1 | – |
| CN(C)c1ccc(-c2ccc3ncc4c(c3c2)n(-c2cccnc2)c(=O)n4C)cn1 [Example 5.3, 8-(6-Dimethylamino-pyridin-3-yl)-3-methyl-1-pyridin-3-yl-1,3-dihydro-imidazo[4,5-c]quinolin-2-one] | – | 251 | – |
| Cc1nc(N2CCN(C)C(=O)C2)ccc1-n1c(=O)n(C)c2cnc3ccc(-c4cnc(N)c(C(F)(F)F)c4)cc3c21 [Example 21.1, 8-(6-Amino-5-trifluoromethyl-pyridin-3-yl)-3-methyl-1-[2-methyl-6-(4-methyl-3-oxo-piperazin-1-yl)-pyridin-3-yl]-1,3-dihydro-imidazo[4,5-c]quinolin-2-one] | – | 10.3 | – |
| COc1ccc(-c2ccc3ncc4c(c3c2)n(-c2ncccc2C)c(=O)n4C)cc1OC [Example 3.10, 8-(3,4-Dimethoxy-phenyl)-3-methyl-1-(3-methyl-pyridin-2-yl)-1,3-dihydro-imidazo[4,5-c]quinolin-2-one] | – | 479 | – |
| CCOc1ccc(-c2ccc3ncc4c(c3c2)n(-c2cccnc2F)c(=O)n4C)cn1 [Example 6.1, 8-(6-Ethoxy-pyridin-3-yl)-1-(2-fluoro-pyridin-3-yl)-3-methyl-1,3-dihydro-imidazo[4,5-c]quinolin-2-one] | – | 144 | – |
| Cc1nc(N2CCC2)ccc1-n1c(=O)n(C)c2cnc3ccc(-c4cncc(C(C)(C)O)c4)cc3c21 [Example 23.3, 1-(6-Azetidin-1-yl-2-methyl-pyridin-3-yl)-8-[5-(1-hydroxy-1-methyl-ethyl)-pyridin-3-yl]-3-methyl-1,3-dihydro-imidazo[4,5-c]quinolin-2-one] | – | 42.2 | – |
| Cn1c(=O)n(-c2cccnc2)c2c3cc(-c4ccc(CO)nc4)ccc3ncc21 [Example 5.1, 8-(6-Hydroxymethyl-pyridin-3-yl)-3-methyl-1-pyridin-3-yl-1,3-dihydro-imidazo[4,5-c]quinolin-2-one] | – | 365 | – |
| COCc1ncc(-c2ccc3ncc4c(c3c2)n(-c2ccc(N3CCC3)nc2C)c(=O)n4C)cc1OC [Example 23.6, 1-(6-Azetidin-1-yl-2-methyl-pyridin-3-yl)-8-(5-methoxy-6-methoxymethyl-pyridin-3-yl)-3-methyl-1,3-dihydro-imidazo[4,5-c]quinolin-2-one] | – | 216 | – |
| CNc1ncc(-c2ccc3ncc4c(c3c2)n(-c2ccc(C(C)(C)O)nc2C)c(=O)n4C)cc1F [Example 31.1, 8-(5-Fluoro-6-methylamino-pyridin-3-yl)-1-[6-(1-hydroxy-1-methyl-ethyl)-2-methyl-pyridin-3-yl]-3-methyl-1,3-dihydro-imidazo[4,5-c]quinolin-2-one] | – | 36 | – |

Source: US20100311714A1, “1H-IMIDAZO[4,5-c]QUINOLINONE COMPOUNDS” (priority 2009, published 2010)
